Numbers after ± are expanded uncertainties.
Experiment: xn = mol fraction of the nth substance listed
Details: Liquid, Vibrating tube method

Compound: C=CC [propene] + CC(C)O
- mass density (325.09 K, 5370.7 kPa, x1 = 0.2011): 709.32 ± 0.74 kg/m3
- mass density (325.09 K, 5883.5 kPa, x1 = 0.2011): 709.98 ± 0.75 kg/m3
- mass density (325.09 K, 6336.2 kPa, x1 = 0.2011): 710.58 ± 0.75 kg/m3
- mass density (325.09 K, 6788.4 kPa, x1 = 0.2011): 711.17 ± 0.75 kg/m3
- mass density (325.09 K, 7346.6 kPa, x1 = 0.2011): 711.9 ± 0.75 kg/m3
- mass density (325.09 K, 7879.3 kPa, x1 = 0.2011): 712.57 ± 0.75 kg/m3
- mass density (325.09 K, 8392.5 kPa, x1 = 0.2011): 713.18 ± 0.75 kg/m3
- mass density (325.09 K, 8985.2 kPa, x1 = 0.2011): 713.89 ± 0.76 kg/m3
- mass density (325.09 K, 9587.7 kPa, x1 = 0.2011): 714.65 ± 0.76 kg/m3
- mass density (325.09 K, x1 = 0.2011): 703.01 ± 0.73 kg/m3
- mass density (325.13 K, 1747.5 kPa, x1 = 0.6478): 573.29 ± 0.62 kg/m3
- mass density (325.13 K, 2151.8 kPa, x1 = 0.6478): 574.52 ± 0.63 kg/m3
- mass density (325.13 K, 2607.5 kPa, x1 = 0.6478): 575.84 ± 0.63 kg/m3
- mass density (325.13 K, 3022.1 kPa, x1 = 0.6478): 577 ± 0.64 kg/m3
- mass density (325.13 K, 3422.7 kPa, x1 = 0.6478): 578.16 ± 0.64 kg/m3
- mass density (325.13 K, 3826.3 kPa, x1 = 0.6478): 579.23 ± 0.64 kg/m3
- mass density (325.13 K, 4289 kPa, x1 = 0.6478): 580.41 ± 0.64 kg/m3
- mass density (325.13 K, 4682.5 kPa, x1 = 0.6478): 581.48 ± 0.65 kg/m3
- mass density (325.13 K, 5094.6 kPa, x1 = 0.6478): 582.53 ± 0.65 kg/m3
- mass density (325.13 K, 5524.8 kPa, x1 = 0.6478): 583.59 ± 0.65 kg/m3
- mass density (325.13 K, 5972.2 kPa, x1 = 0.6478): 584.68 ± 0.66 kg/m3
- mass density (325.13 K, 6431 kPa, x1 = 0.6478): 585.75 ± 0.66 kg/m3
- mass density (325.13 K, 6923.3 kPa, x1 = 0.6478): 586.94 ± 0.66 kg/m3
- mass density (325.13 K, 7433.5 kPa, x1 = 0.6478): 588.03 ± 0.67 kg/m3
- mass density (325.13 K, 7935 kPa, x1 = 0.6478): 589.22 ± 0.67 kg/m3
- mass density (325.13 K, 8459.9 kPa, x1 = 0.6478): 590.39 ± 0.67 kg/m3
- mass density (325.13 K, 9024 kPa, x1 = 0.6478): 591.62 ± 0.68 kg/m3
- mass density (325.13 K, 9558.5 kPa, x1 = 0.6478): 592.78 ± 0.68 kg/m3
- mass density (325.13 K, x1 = 0.6478): 573.24 ± 0.62 kg/m3
- mass density (350.12 K, 2332.3 kPa, x1 = 0.5201): 576.59 ± 0.63 kg/m3
- mass density (350.12 K, 2731.4 kPa, x1 = 0.5201): 577.92 ± 0.63 kg/m3
- mass density (350.12 K, 2992.4 kPa, x1 = 0.5201): 578.85 ± 0.64 kg/m3
- mass density (350.12 K, 3218 kPa, x1 = 0.5201): 579.68 ± 0.64 kg/m3
- mass density (350.12 K, 3506.1 kPa, x1 = 0.5201): 580.58 ± 0.64 kg/m3
- mass density (350.12 K, 3765.6 kPa, x1 = 0.5201): 581.46 ± 0.64 kg/m3
- mass density (350.12 K, 4225.5 kPa, x1 = 0.5201): 582.95 ± 0.65 kg/m3
- mass density (350.12 K, 4550.6 kPa, x1 = 0.5201): 583.87 ± 0.65 kg/m3
- mass density (350.12 K, 4824.4 kPa, x1 = 0.5201): 584.73 ± 0.65 kg/m3
- mass density (350.12 K, 5103.7 kPa, x1 = 0.5201): 585.64 ± 0.65 kg/m3
- mass density (350.12 K, 5399.3 kPa, x1 = 0.5201): 586.54 ± 0.65 kg/m3
- mass density (350.12 K, 5715.5 kPa, x1 = 0.5201): 587.44 ± 0.66 kg/m3
- mass density (350.12 K, 5999.5 kPa, x1 = 0.5201): 588.29 ± 0.66 kg/m3
- mass density (350.12 K, 6303.9 kPa, x1 = 0.5201): 589.18 ± 0.66 kg/m3
- mass density (350.12 K, 6632.8 kPa, x1 = 0.5201): 590.1 ± 0.66 kg/m3
- mass density (350.12 K, 6975.5 kPa, x1 = 0.5201): 591.05 ± 0.67 kg/m3
- mass density (350.12 K, 7280 kPa, x1 = 0.5201): 591.94 ± 0.67 kg/m3
- mass density (350.12 K, 7641.3 kPa, x1 = 0.5201): 592.87 ± 0.67 kg/m3
- mass density (350.12 K, 7963.5 kPa, x1 = 0.5201): 593.76 ± 0.67 kg/m3
- mass density (350.12 K, 8312 kPa, x1 = 0.5201): 594.68 ± 0.68 kg/m3
- mass density (350.12 K, 8762.4 kPa, x1 = 0.5201): 595.82 ± 0.68 kg/m3
- mass density (350.12 K, 9211 kPa, x1 = 0.5201): 596.88 ± 0.68 kg/m3
- mass density (350.12 K, 9622.9 kPa, x1 = 0.5201): 597.92 ± 0.69 kg/m3
- mass density (350.12 K, x1 = 0.5201): 575.99 ± 0.62 kg/m3
- mass density (350.18 K, 1639.5 kPa, x1 = 0.2011): 677.13 ± 0.71 kg/m3
- mass density (350.18 K, 2070 kPa, x1 = 0.2011): 677.93 ± 0.71 kg/m3
- mass density (350.18 K, 2446.2 kPa, x1 = 0.2011): 678.64 ± 0.71 kg/m3
- mass density (350.18 K, 2689 kPa, x1 = 0.6478): 531.01 ± 0.6 kg/m3
- mass density (350.18 K, 2924.3 kPa, x1 = 0.2011): 679.5 ± 0.71 kg/m3
- mass density (350.18 K, 3126.3 kPa, x1 = 0.6478): 533.02 ± 0.61 kg/m3
- mass density (350.18 K, 3271.4 kPa, x1 = 0.2011): 680.17 ± 0.72 kg/m3
- mass density (350.18 K, 3675.3 kPa, x1 = 0.2011): 680.86 ± 0.72 kg/m3
- mass density (350.18 K, 3686.2 kPa, x1 = 0.6478): 535.68 ± 0.61 kg/m3
- mass density (350.18 K, 3914.3 kPa, x1 = 0.6478): 536.74 ± 0.62 kg/m3
- mass density (350.18 K, 4058.4 kPa, x1 = 0.2011): 681.6 ± 0.72 kg/m3
- mass density (350.18 K, 4203.2 kPa, x1 = 0.6478): 537.97 ± 0.62 kg/m3
- mass density (350.18 K, 4446.8 kPa, x1 = 0.2011): 682.32 ± 0.72 kg/m3
- mass density (350.18 K, 4484.6 kPa, x1 = 0.6478): 539.15 ± 0.62 kg/m3
- mass density (350.18 K, 4738.5 kPa, x1 = 0.6478): 540.5 ± 0.62 kg/m3
- mass density (350.18 K, 4791.3 kPa, x1 = 0.2011): 682.93 ± 0.72 kg/m3
- mass density (350.18 K, 5023.4 kPa, x1 = 0.6478): 541.63 ± 0.62 kg/m3
- mass density (350.18 K, 5171.9 kPa, x1 = 0.2011): 683.6 ± 0.72 kg/m3
- mass density (350.18 K, 5321.2 kPa, x1 = 0.6478): 542.86 ± 0.63 kg/m3
- mass density (350.18 K, 5557.4 kPa, x1 = 0.2011): 684.26 ± 0.73 kg/m3
- mass density (350.18 K, 5614 kPa, x1 = 0.6478): 543.95 ± 0.63 kg/m3
- mass density (350.18 K, 5938.9 kPa, x1 = 0.6478): 545.1 ± 0.63 kg/m3
- mass density (350.18 K, 6002 kPa, x1 = 0.2011): 684.96 ± 0.73 kg/m3
- mass density (350.18 K, 6268.4 kPa, x1 = 0.6478): 546.35 ± 0.64 kg/m3
- mass density (350.18 K, 6430.2 kPa, x1 = 0.2011): 685.69 ± 0.73 kg/m3
- mass density (350.18 K, 6622.1 kPa, x1 = 0.6478): 547.76 ± 0.64 kg/m3
- mass density (350.18 K, 6978.6 kPa, x1 = 0.6478): 548.98 ± 0.64 kg/m3
- mass density (350.18 K, 7071.2 kPa, x1 = 0.2011): 686.73 ± 0.73 kg/m3
- mass density (350.18 K, 7362 kPa, x1 = 0.6478): 550.27 ± 0.65 kg/m3
- mass density (350.18 K, 7570.5 kPa, x1 = 0.2011): 687.62 ± 0.73 kg/m3
- mass density (350.18 K, 7736.5 kPa, x1 = 0.6478): 551.56 ± 0.65 kg/m3
- mass density (350.18 K, 7944.1 kPa, x1 = 0.2011): 688.25 ± 0.74 kg/m3
- mass density (350.18 K, 8126.2 kPa, x1 = 0.6478): 552.91 ± 0.65 kg/m3
- mass density (350.18 K, 8386.8 kPa, x1 = 0.2011): 688.92 ± 0.74 kg/m3
- mass density (350.18 K, 8525.5 kPa, x1 = 0.6478): 554.11 ± 0.66 kg/m3
- mass density (350.18 K, 8826.8 kPa, x1 = 0.2011): 689.6 ± 0.74 kg/m3
- mass density (350.18 K, 8979.8 kPa, x1 = 0.6478): 555.58 ± 0.66 kg/m3
- mass density (350.18 K, 9279 kPa, x1 = 0.2011): 690.38 ± 0.74 kg/m3
- mass density (350.18 K, 9488 kPa, x1 = 0.6478): 557.04 ± 0.66 kg/m3
- mass density (350.18 K, 9779.6 kPa, x1 = 0.2011): 691.08 ± 0.74 kg/m3
- mass density (350.18 K, 9989.8 kPa, x1 = 0.6478): 558.59 ± 0.67 kg/m3
- mass density (350.18 K, x1 = 0.2011): 676.38 ± 0.7 kg/m3
- mass density (350.18 K, x1 = 0.6478): 530.66 ± 0.59 kg/m3

Reference: the NIST ThermoML archive (doi:10.1021/je800017j)
